Active and inactive are the calls of the source. The calls are words filed in the database; no cut-off is given here. Residues, ends and D or L forms follow the SMILES beside them. *: point of attachment. CH2Cl = ClC*
Assays:
[1] = molecular target: T1, Threonine aspartase 1 (Homo sapiens) (UniProt Q9H6P5); assay: Inhibition of recombinant Taspase1 (unknown origin) up to 0.1 mM using [35S]-methionine labeled human MLL1 (2400-2900 residues) as substrate preincubated for 30 mins followed by substrate addition measured after 30 mins by SDS-PAGE based autoradiography
T1 sequence (whole entry): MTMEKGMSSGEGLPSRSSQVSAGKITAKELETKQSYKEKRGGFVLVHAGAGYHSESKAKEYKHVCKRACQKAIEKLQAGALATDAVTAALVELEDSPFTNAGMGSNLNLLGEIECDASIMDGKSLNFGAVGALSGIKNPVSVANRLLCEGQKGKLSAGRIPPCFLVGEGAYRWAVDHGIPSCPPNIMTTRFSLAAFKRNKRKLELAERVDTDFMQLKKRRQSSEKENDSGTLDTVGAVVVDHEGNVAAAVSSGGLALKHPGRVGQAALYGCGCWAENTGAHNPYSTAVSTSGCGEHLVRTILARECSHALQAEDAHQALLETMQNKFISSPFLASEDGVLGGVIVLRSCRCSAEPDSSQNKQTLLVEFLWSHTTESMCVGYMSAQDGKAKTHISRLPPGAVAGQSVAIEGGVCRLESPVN

[2] = molecular target: T1, Threonine aspartase 1 (Homo sapiens); assay: Inhibition of recombinant Taspase1 (unknown origin) at 10 to 1000 uM using [35S]-methionine labeled human MLL1 (2400-2900 residues) as substrate preincubated for 30 mins followed by substrate addition measured after 30 mins by SDS-PAGE based autoradiography
Threonine aspartase 1 = molecular target: T2, Threonine aspartase 1 (Homo sapiens, UniProt Q9H6P5); assay: Inhibition of recombinant Taspase1 (unknown origin) using [35S]-methionine labeled human MLL1 (2400-2900 residues) as substrate preincubated for 30 mins followed by substrate addition measured after 30 mins by SDS-PAGE based autoradiography
T2 sequence (Q9H6P5 whole entry): T1 sequence (whole entry)

BT-549 = assay: Growth inhibition of human BT549 cells expressing Taspase1; type: functional, cell-based
[3] = molecular target: T1, Threonine aspartase 1 (Homo sapiens); assay: Covalent irreversible inhibition of recombinant Taspase1 (unknown origin) at 0.1 mM using [35S]-methionine labeled human MLL1 (2400-2900 residues) as substrate preincubated for 15 to 60 mins followed by substrate addition measured after 30 mins by SDS-PAGE based autoradiography
Caspase-8 (Homo sapiens) = Caspase-8 (Homo sapiens) (UniProt Q14790); assay: Inhibition of recombinant caspase8 (unknown origin) at 1 mM using [35S]-methionine labeled p22 BID as substrate preincubated for 30 mins followed by substrate addition measured after 2 hrs by SDS-PAGE based autoradiography
Caspase-8 (Homo sapiens), sequence (Q14790 217-374 limits assumed): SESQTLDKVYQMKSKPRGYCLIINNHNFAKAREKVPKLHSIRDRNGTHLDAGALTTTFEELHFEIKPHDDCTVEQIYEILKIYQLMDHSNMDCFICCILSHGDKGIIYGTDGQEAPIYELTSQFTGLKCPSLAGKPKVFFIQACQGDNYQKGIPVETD
Caspase-8 (Homo sapiens), sequence (Q14790 385-479 limits assumed): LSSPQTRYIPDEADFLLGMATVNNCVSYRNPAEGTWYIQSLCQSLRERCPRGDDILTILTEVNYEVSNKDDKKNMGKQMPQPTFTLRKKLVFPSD

T47D = assay: Growth inhibition of human T47D cells expressing Taspase1; type: functional, cell-based
[4] = molecular target: T1, Threonine aspartase 1 (Homo sapiens); assay: Inhibition of recombinant Taspase1 (unknown origin) at 1 mM using [35S]-methionine labeled human MLL1 (2400-2900 residues) as substrate preincubated for 30 mins followed by substrate addition measured after 30 mins by SDS-PAGE based autoradiography
Hs-578T = assay: Growth inhibition of human Hs578T cells expressing Taspase1; type: functional, cell-based
SF-268 = assay: Growth inhibition of human SF268 cells expressing Taspase1; type: functional, cell-based
MEF [5] = assay: Growth inhibition of SV40 transformed wild-type Taspase1 expressing MEF after 2 days by MTT ssay; type: functional, cell-based; conditions: Mus musculus
SNB-75 = assay: Growth inhibition of human SNB75 cells expressing Taspase1; type: functional, cell-based
MEF [6] = assay: Growth inhibition of SV40 transformed Taspase1 deficient MEF after 2 days by MTT assay; type: functional, cell-based; conditions: Mus musculus
SF-295 = assay: Growth inhibition of human SF295 cells expressing Taspase1; type: functional, cell-based
U-251 = assay: Growth inhibition of human U251 cells expressing Taspase1; type: functional, cell-based
MDA-MB-231 = assay: Growth inhibition of human MDA-MB-231 cells expressing Taspase1; type: functional, cell-based
SF-539 = assay: Growth inhibition of human SF539 cells expressing Taspase1; type: functional, cell-based
MCF7 = assay: Growth inhibition of human MCF7 cells expressing Taspase1; type: functional, cell-based
[7] = molecular target: T1, Threonine aspartase 1 (Homo sapiens); assay: Inhibition of recombinant Taspase1 (unknown origin) at 10 uM using [35S]-methionine labeled human MLL1 (2400-2900 residues) as substrate preincubated for 30 mins followed by substrate addition measured after 30 mins by SDS-PAGE based autoradiography

SMILES: O=[As](O)(O)O
- inhibition [1]: inactive

SMILES: O=C(O)Cc1ccc(Oc2ccc(CC(=O)O)cc2)cc1
- inhibition [2]: inactive

SMILES: CC[C@H](C)[C@H](NC(C)=O)C(=O)N[C@@H](CO)C(=O)N[C@@H](CCC(N)=O)C(=O)N[C@@H](CC(C)C)C(=O)N[C@@H](CC(=O)O)C(=O)CCl (Ac-ISQLD-CH2Cl)
- IC50 (Threonine aspartase 1): > 100 µM

SMILES: O=[As](O)(O)c1ccc(Cc2ccc([As](=O)(O)O)cc2)cc1
- growth inhibition (GI) (BT-549): Active
- inhibition [3]: inactive
- inhibition (Caspase-8 (Homo sapiens)): inactive
- growth inhibition (GI) (T47D): Active
- inhibition [4]: Active
- growth inhibition (GI) (Hs-578T): Active
- growth inhibition (GI) (SF-268): Active
- growth inhibition (GI) (MEF [5]): Active
- growth inhibition (GI) (SNB-75): Active
- growth inhibition (GI) (MEF [6]): inactive
- growth inhibition (GI) (SF-295): Active
- growth inhibition (GI) (U-251): Active
- growth inhibition (GI) (MDA-MB-231): Active
- growth inhibition (GI) (SF-539): Active
- growth inhibition (GI) (MCF7): Active
- inhibition [7]: Active

SMILES: CC[C@H](C)[C@H](NC(=O)[C@H](CCCCN)NC(C)=O)C(=O)N[C@@H](CO)C(=O)N[C@@H](CCC(N)=O)C(=O)N[C@@H](CC(C)C)C(=O)N[C@H](C=O)CC(=O)O (Ac-KISQLD-aldehyde)
- IC50 (Threonine aspartase 1): > 100 µM

From ChEMBL document CHEMBL3991945, “TASPASE1 inhibitors and their uses” (2013)
